These results are taken from ChEMBL document CHEMBL3244164, “Synthesis and analgesic activity of 1,3-dihydro-3-(substituted phenyl)imidazo[4,5-b]pyridin-2-ones and 3-(substituted phenyl)-1,2,3-triazolo[4,5-b]pyridines” (J Med Chem, 1978).

For assay [1], the system named is Rattus norvegicus. In words: Analgesic activity in Sprague-Dawley rat normal foot assessed as response threshold at 32 mg/kg, po. It is filed as functional.
Assay [2] deals with Rattus norvegicus. In words: Analgesic activity in Sprague-Dawley rat brewer's yeast treated foot assessed as response threshold at 32 mg/kg, po. It is filed as functional.

Where only a bound is given, the exact number is not on record here.

For `O=c1[nH]c2cccnc2n1-c1c(F)cccc1F`, the figures for the Activity in the assay with Rattus norvegicus [1] and in the assay on Rattus norvegicus [2] were below 40 mm and below 25 mm, respectively.
Turning to `O=c1[nH]c2cc([N+](=O)[O-])cnc2n1-c1ccccc1F`, the Activity with Rattus norvegicus [1] is below 40 mm; with Rattus norvegicus [2], below 25 mm.
Take `C=CCn1c(=O)n(-c2ccc(OC)c(OC)c2)c2ncccc21`: the Activity in the assay on Rattus norvegicus [1] is reported as below 40 mm; in the assay on Rattus norvegicus [2], below 25 mm.
The corresponding values for `O=c1[nH]c2cccnc2n1-c1ccc(Cl)c(Cl)c1` are below 40 mm and below 25 mm.
The corresponding values for `CC(C)c1ccccc1-n1nnc2cccnc21` are below 40 mm and 25 mm.
The like results for `c1cnc2c(c1)nnn2Cc1ccc2c(c1)OCO2` were, in that order, below 40 mm and below 25 mm.
As to `Brc1ccccc1-n1nnc2cccnc21`, the Activity in the assay on Rattus norvegicus [1] is below 40 mm; in the assay with Rattus norvegicus [2] it was 25 mm.
`O=c1n(-c2ccc3c(c2)OCO3)c2ncccc2n1S(=O)(=O)c1ccc(F)cc1`: the Activity is below 40 mm in the assay with Rattus norvegicus [1] and below 25 mm in the assay on Rattus norvegicus [2].
The like results for `C=CCn1c(=O)n(-c2ccc3c(c2)OCO3)c2ncncc21` were, in that order, below 40 mm and below 25 mm.
The like results for `CCC1(CC)Oc2ccc(-n3nnc4cccnc43)cc2O1` were, in that order, below 40 mm and below 25 mm.
The corresponding values for `CC(C)=O.O=C(Cn1c(=O)n(-c2ccc3c(c2)OCO3)c2ncccc21)c1ccccc1` are 40 mm and below 25 mm.
As to `CN(C)CCCn1c(=O)n(-c2ccc3c(c2)OCO3)c2ncccc21`, the Activity in the assay with Rattus norvegicus [1] is given as below 40 mm; in the assay on Rattus norvegicus [2], below 25 mm.
With `O=c1n(C/C=C/c2ccccc2)c2cccnc2n1-c1ccc2c(c1)OCO2`, the Activity with Rattus norvegicus [1] is below 40 mm; in the assay with Rattus norvegicus [2] it was below 25 mm.
`COc1cc(-n2c(=O)[nH]c3cccnc32)cc(OC)c1OC`: the results for the Activity in the assay with Rattus norvegicus [1] and in the assay with Rattus norvegicus [2] were below 40 mm and below 25 mm, respectively.
Regarding `O=c1[nH]c2cccnc2n1-c1ccc(Cl)cc1`, the Activity was below 40 mm in the assay with Rattus norvegicus [1] and below 25 mm in the assay on Rattus norvegicus [2].
The corresponding values for `CC(=O)Nc1ccc(-n2nnc3cccnc32)cc1` are below 40 mm and below 25 mm.
Turning to `NC(=O)c1ccccc1-n1nnc2cccnc21`, the Activity in the assay with Rattus norvegicus [1] is below 40 mm; in the assay with Rattus norvegicus [2], 25 mm.
The like results for `COC(=O)c1cnc2c(c1)nnn2-c1ccccc1F` were, in that order, below 40 mm and below 25 mm.
With `CCOC(=O)c1cccc(-n2c(=O)[nH]c3cccnc32)c1`, the Activity with Rattus norvegicus [1] was below 40 mm; with Rattus norvegicus [2], below 25 mm.
Turning to `CN(C)c1ccccc1-n1nnc2cccnc21`, the Activity in the assay on Rattus norvegicus [1] is below 40 mm; with Rattus norvegicus [2], below 25 mm.
Take `C=CCn1c(=O)n(-c2ccc(C)c(OC)c2)c2ncccc21`: the Activity in the assay on Rattus norvegicus [1] is on record as below 40 mm; with Rattus norvegicus [2] it was below 25 mm.
Regarding `O=c1[nH]c2cccnc2n1-c1ccc(Cl)cc1Cl`, the Activity in the assay with Rattus norvegicus [1] was below 40 mm; with Rattus norvegicus [2] it was 25 mm.
For the molecule `Clc1ccc(-n2nnc3cccnc32)cc1Cl`, the Activity with Rattus norvegicus [1] is below 40 mm; in the assay on Rattus norvegicus [2], below 25 mm.
On to `COc1ccc(-n2nnc3cccnc32)c(OC)c1`, for which the results for the Activity in the assay on Rattus norvegicus [1] and in the assay on Rattus norvegicus [2] were below 40 mm and below 25 mm, respectively.
Consider `Cc1cccc(C)c1-n1c(=O)[nH]c2cccnc21`, for which the Activity is below 40 mm in the assay with Rattus norvegicus [1] and 25 mm in the assay with Rattus norvegicus [2].
The corresponding values for `COc1cccc(-n2c(=O)[nH]c3cccnc32)c1` are below 40 mm and below 25 mm.
`O=c1[nH]c2cccnc2n1-c1cccc(C(F)(F)F)c1`: the Activity with Rattus norvegicus [1] is below 40 mm; in the assay with Rattus norvegicus [2], below 25 mm.
For the molecule `Cc1cccc(C)c1-n1nnc2cccnc21`, the Activity with Rattus norvegicus [1] was below 40 mm; in the assay with Rattus norvegicus [2] it was 25 mm.
As to `COc1ccc(OC)c(-n2c(=O)[nH]c3cccnc32)c1`, the Activity is below 40 mm in the assay on Rattus norvegicus [1] and below 25 mm in the assay on Rattus norvegicus [2].
The like results for `COc1ccc(-n2nnc3cccnc32)cc1OC` were, in that order, below 40 mm and below 25 mm.
The like results for `CC(=O)n1c(=O)n(-c2ccc3c(c2)OCO3)c2ncccc21` were, in that order, 40 mm and 25 mm.
The like results for `Cc1cccc(-n2nnc3cccnc32)n1` were, in that order, below 40 mm and below 25 mm.
Regarding `O=c1[nH]c2cccnc2n1-c1ccccc1Br`, the Activity is reported as below 40 mm in the assay on Rattus norvegicus [1] and 25 mm in the assay with Rattus norvegicus [2].
The corresponding values for `O=c1[nH]c2cccnc2n1-c1cccc(F)c1` are below 40 mm and below 25 mm.
The like results for `Nc1cnc2c(c1)[nH]c(=O)n2-c1ccccc1F` were, in that order, below 40 mm and below 25 mm.
On to `Cc1cnc2c(c1)nnn2-c1ccccc1F`, for which the Activity in the assay with Rattus norvegicus [1] is reported as below 40 mm; in the assay on Rattus norvegicus [2] it was below 25 mm.
The corresponding values for `COC(=O)c1cnc2c(c1)nnn2-c1ccc2c(c1)OCO2` are below 40 mm and below 25 mm.
Turning to `O=c1[nH]c2cccnc2n1-c1ccc2c(c1)COC2`, the Activity in the assay with Rattus norvegicus [1] is on record as below 40 mm; in the assay on Rattus norvegicus [2], below 25 mm.
The corresponding values for `O=c1[nH]c2cccnc2n1-c1cccc2c1OCO2` are below 40 mm and below 25 mm.
The corresponding values for `S=c1[nH]c2cccnc2n1-c1ccc2c(c1)OCO2` are below 40 mm and below 25 mm.
Turning to `O=c1[nH]c2cncnc2n1-c1ccc2c(c1)OCO2`, the Activity in the assay with Rattus norvegicus [1] was below 40 mm; in the assay with Rattus norvegicus [2], below 25 mm.
The corresponding values for `Fc1ccc(-n2nnc3cccnc32)cc1` are below 40 mm and below 25 mm.
The like results for `O=c1[nH]c2cccnc2n1-c1ccc2c(c1)CCC2` were, in that order, below 40 mm and below 25 mm.
The corresponding values for `c1ccc(-c2nc3cccnc3n2-c2ccc3c(c2)OCO3)cc1` are below 40 mm and below 25 mm.
With `CSCn1c(=O)n(-c2ccccc2)c2ncccc21`, the Activity with Rattus norvegicus [1] is given as below 40 mm; with Rattus norvegicus [2], 25 mm.
As to `C=CCn1c(=O)n(-c2cccc(C)n2)c2ncccc21`, the Activity is reported as below 40 mm in the assay on Rattus norvegicus [1] and below 25 mm in the assay with Rattus norvegicus [2].
With `CC(C)=CCn1c(=O)n(-c2ccc3c(c2)OCO3)c2ncccc21`, the Activity in the assay with Rattus norvegicus [1] is given as below 40 mm; with Rattus norvegicus [2], below 25 mm.
The corresponding values for `O=C(O)c1cnc2c(c1)[nH]c(=O)n2-c1ccc2c(c1)OCO2` are below 40 mm and below 25 mm.
Turning to `C=C=Cn1c(=O)n(-c2ccc3c(c2)OCO3)c2ncccc21`, the Activity in the assay on Rattus norvegicus [1] is recorded as below 40 mm; in the assay with Rattus norvegicus [2], below 25 mm.
On to `Cc1ccc(F)c(-n2nnc3cccnc32)c1`, for which the Activity with Rattus norvegicus [1] is reported as below 40 mm; in the assay with Rattus norvegicus [2], below 25 mm.
The like results for `Cc1cc2c(cc1-n1c(=O)[nH]c3cccnc31)OCO2` were, in that order, below 40 mm and below 25 mm.
The like results for `O=c1[nH]c2cccnc2n1-c1ccc2c(c1)OCCO2` were, in that order, below 40 mm and below 25 mm.
The like results for `CC1(C)Oc2ccc(-n3nnc4cccnc43)cc2O1` were, in that order, below 40 mm and below 25 mm.
Consider `C=CCSc1nc2cccnc2n1-c1ccc2c(c1)OCO2`, for which the figures for the Activity with Rattus norvegicus [1] and in the assay with Rattus norvegicus [2] were below 40 mm and below 25 mm, respectively.
As to `CC(=O)Oc1ccccc1C(=O)O` [ASPIRIN], the Activity is given as below 40 mm with Rattus norvegicus [1] and 25 mm in the assay on Rattus norvegicus [2].
The corresponding values for `O=c1n(-c2ccc3c(c2)OCO3)c2ncccc2n1C(F)(F)C(F)Cl` (centres undefined) are below 40 mm and below 25 mm.
As for `O=c1[nH]c2ccccc2n1-c1ccc2c(c1)OCO2`, the values for the Activity with Rattus norvegicus [1] and in the assay on Rattus norvegicus [2] were below 40 mm and below 25 mm, respectively.
The like results for `c1cnc2c(c1)nnn2-c1ccc2c(c1)COCO2` were, in that order, below 40 mm and below 25 mm.
With `COc1ccc(OC)c(-n2nnc3cccnc32)c1`, the Activity is listed as below 40 mm in the assay with Rattus norvegicus [1] and below 25 mm in the assay on Rattus norvegicus [2].
The corresponding values for `O=c1[nH]c2cccnc2n1-c1ccc2c(c1)OC1(CCCCC1)O2` are below 40 mm and below 25 mm.
On to `COc1cc(-n2nnc3cccnc32)ccc1C`, for which the Activity in the assay on Rattus norvegicus [1] was below 40 mm; in the assay with Rattus norvegicus [2] it was below 25 mm.
Take `C=CCn1c(=O)n(-c2ccc3c(c2)OCO3)c2ncccc21.CI`: the Activity in the assay on Rattus norvegicus [1] is given as below 40 mm; in the assay on Rattus norvegicus [2], below 25 mm.
The like results for `CC(=O)OCn1c(=O)n(-c2ccc3c(c2)OCO3)c2ncccc21` were, in that order, below 40 mm and below 25 mm.
The like results for `O=c1[nH]c2cccnc2n1C1CCCCC1` were, in that order, below 40 mm and below 25 mm.
For the molecule `O=c1[nH]c2cccnc2n1-c1cccc(Oc2ccccc2)c1`, the Activity is below 40 mm in the assay with Rattus norvegicus [1] and below 25 mm in the assay on Rattus norvegicus [2].
The like results for `COc1cc(-n2nnc3cccnc32)cc(OC)c1OC` were, in that order, below 40 mm and below 25 mm.
The corresponding values for `COc1ccc(-n2c(=O)[nH]c3cccnc32)cc1` are below 40 mm and below 25 mm.
The like results for `C=CCn1c(=O)n(-c2ccc3c(c2)OC2(CCCCC2)O3)c2ncccc21` were, in that order, 40 mm and below 25 mm.
For the molecule `O=c1[nH]c2cccnc2n1-c1cc(F)ccc1F`, the results for the Activity with Rattus norvegicus [1] and in the assay with Rattus norvegicus [2] were below 40 mm and below 25 mm, respectively.
The corresponding values for `O=c1[nH]c2cccnc2n1-c1cc2c(cc1[N+](=O)[O-])OCO2` are below 40 mm and below 25 mm.
For the molecule `CCc1ccc(-n2nnc3cccnc32)cc1`, the Activity in the assay with Rattus norvegicus [1] is listed as below 40 mm; in the assay on Rattus norvegicus [2] it was below 25 mm.
The corresponding values for `N#Cc1ccccc1-n1nnc2cccnc21` are below 40 mm and 25 mm.
